Residues, ends and D or L forms follow the SMILES beside them.

This test deals with T1, Protein S (Homo sapiens, UniProt P07225).
T1 sequence (P07225 41-676 limits assumed): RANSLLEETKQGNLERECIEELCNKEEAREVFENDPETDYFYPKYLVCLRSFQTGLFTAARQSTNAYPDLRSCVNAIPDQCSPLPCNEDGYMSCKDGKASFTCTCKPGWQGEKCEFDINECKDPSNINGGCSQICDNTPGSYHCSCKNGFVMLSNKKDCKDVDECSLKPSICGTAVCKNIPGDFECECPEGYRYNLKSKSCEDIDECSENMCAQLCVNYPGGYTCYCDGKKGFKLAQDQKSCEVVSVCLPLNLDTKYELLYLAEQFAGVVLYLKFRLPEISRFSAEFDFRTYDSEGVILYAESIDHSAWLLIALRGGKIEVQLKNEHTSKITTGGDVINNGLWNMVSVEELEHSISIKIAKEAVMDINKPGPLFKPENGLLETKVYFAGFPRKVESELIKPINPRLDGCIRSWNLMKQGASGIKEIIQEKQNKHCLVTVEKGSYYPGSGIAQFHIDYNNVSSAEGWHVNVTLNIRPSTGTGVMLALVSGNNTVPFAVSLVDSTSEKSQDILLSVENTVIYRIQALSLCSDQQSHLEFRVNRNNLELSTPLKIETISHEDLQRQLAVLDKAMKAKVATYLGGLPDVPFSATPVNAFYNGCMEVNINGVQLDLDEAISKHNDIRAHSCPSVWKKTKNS
Put plainly: competition (IC50) ELISA with biotinylated tracer peptide JBS0684. The format is binding. The following applies: competition ELISA, tracer JBS0684; re-synthesized peptides. As for the experimental part: The new peptide candidates were synthesized (purity >60%) and screened for affinity in a competitive binding assay (ELISA IC50) and activity in a thrombin generation assay (CAT). The competition (IC50) ELISA was performed using biotinylated tracer peptide JBS0684 to compete for Protein S-binding with candidate peptides. Peptides that compete with the tracer bind the same region of Protein S as the tracer (and each other). Ninety-six well PolySorp plates (Nunc) were coated with 3 μg/mL Protein S in coating buffer (15 mM Na2CO3, 35 mM NaHCO3, pH 9.6) over night. Plates were washed three times with wash buffer (HNaT: 175 mM NaCl, 25 mM HEPES, 5 mM CaCl2, 0.1% Tween 80, pH 7.35), and blocked with 100 μl 2% yeast extract in HNaT for at least 1 hour. Plates were then washed three times with HNaT. JBS0684 was applied at a concentration corresponding to the EC90 value determined in the binding ELISA. A competitor stock solution of peptide (10 mM) was diluted 1/33.3 in HNaT without HSA, and a serial ⅓ dilution was prepared with HNaT with 3% DMSO. The dilution was further diluted with the biotinylated tracer peptide in a ratio of 1:6 (20 μl competitor dilution and 100 μl tracer peptide). The mixture of competitor and tracer peptide was applied to the Protein S-coated microtiter plate and incubated for 1.5 hours. The plates were washed three times with HNaT. Peptide-Protein S binding was detected by applying HRP-conjugated streptavidin to the microtiter plate, incubating the mixture for one hour, washing the plate three times with HNaT, applying TMB (3,3′5,5′-Tetramethylbenzidin), and detecting the subsequent chromogenic conversion of TMB by HRP. IC50 measurements of peptides are provided herein (see, e.g., Table 3).
A general note: ELISA stands for enzyme-linked immunosorbent assay.
In the case of `CC(=O)N[C@H](C(=O)NCC(=O)N[C@@H](Cc1c[nH]cn1)C(=O)N[C@H](C(=O)N[C@@H](CO)C(=O)N[C@@H](C)C(=O)NCC(=O)N[C@@H](Cc1c[nH]c2ccccc12)C(=O)N[C@@H](Cc1ccc(O)cc1)C(=O)N[C@@H](CC(=O)O)C(=O)N[C@@H](Cc1ccc(O)cc1)C(=O)N[C@@H](CC(N)=O)C(=O)N[C@@H](Cc1ccccc1)C(=O)N[C@@H](CC(=O)O)C(=O)N[C@@H](C)C(=O)N[C@@H](Cc1ccc(O)cc1)C(=O)N[C@@H](CCCNC(=N)N)C(=O)N[C@@H](CCC(=O)O)C(=O)N[C@@H](Cc1ccccc1)C(=O)N[C@H](C(N)=O)[C@@H](C)O)C(C)C)[C@@H](C)O` [JBS2528] (Ac-TGHVSAGWYDYNFDAYREFT-NH2), the concentration for half-maximal inhibition (IC50) came to 5.2 nM.
As for `CC(=O)N[C@H](C(=O)NCC(=O)N[C@@H](Cc1c[nH]cn1)C(=O)N[C@H](C(=O)N[C@@H](CO)C(=O)N[C@@H](C)C(=O)NCC(=O)N[C@@H](Cc1c[nH]c2ccccc12)C(=O)N[C@@H](Cc1ccc(O)cc1)C(=O)N[C@@H](CC(=O)O)C(=O)N[C@@H](Cc1ccc(O)cc1)C(=O)N[C@@H](CC(N)=O)C(=O)N[C@@H](CC(C)C)C(=O)N[C@@H](CC(=O)O)C(=O)N[C@@H](Cc1c[nH]cn1)C(=O)N[C@@H](Cc1ccc(O)cc1)C(=O)N[C@@H](CCCNC(=N)N)C(=O)N[C@@H](CCC(=O)O)C(=O)N[C@@H](Cc1ccccc1)C(=O)N[C@H](C(N)=O)[C@@H](C)O)C(C)C)[C@@H](C)O` [JBS2582] (Ac-TGHVSAGWYDYNLDHYREFT-NH2), the concentration for half-maximal inhibition (IC50) was found to be 2.3 nM.
Take `CC(=O)N[C@H](C(=O)NCC(=O)N[C@@H](CCCCN)C(=O)N[C@H](C(=O)N[C@@H](CO)C(=O)N[C@@H](C)C(=O)NCC(=O)N[C@@H](Cc1c[nH]c2ccccc12)C(=O)N[C@@H](Cc1ccc(O)cc1)C(=O)N[C@@H](CC(=O)O)C(=O)N[C@@H](Cc1ccc(O)cc1)C(=O)N[C@@H](CC(N)=O)C(=O)N[C@@H](Cc1ccccc1)C(=O)N[C@@H](CC(=O)O)C(=O)N[C@@H](Cc1c[nH]cn1)C(=O)N[C@@H](Cc1ccc(O)cc1)C(=O)N[C@@H](CCCNC(=N)N)C(=O)N[C@@H](CCC(=O)O)C(=O)N[C@@H](Cc1ccccc1)C(=O)N[C@H](C(N)=O)[C@@H](C)O)C(C)C)[C@@H](C)O` [JBS2592] (Ac-TGKVSAGWYDYNFDHYREFT-NH2): the IC50 came out at 5.6 nM.
`CC(=O)N[C@H](C(=O)NCC(=O)N[C@@H](Cc1c[nH]cn1)C(=O)N[C@H](C(=O)N[C@@H](CO)C(=O)N[C@@H](C)C(=O)NCC(=O)N[C@@H](Cc1c[nH]c2ccccc12)C(=O)N[C@@H](Cc1ccc(O)cc1)C(=O)N[C@@H](CC(=O)O)C(=O)N[C@@H](Cc1ccc(O)cc1)C(=O)N[C@@H](CC(N)=O)C(=O)N[C@@H](Cc1ccccc1)C(=O)N[C@@H](CC(=O)O)C(=O)N[C@@H](Cc1c[nH]cn1)C(=O)N[C@@H](Cc1ccc(O)cc1)C(=O)N[C@@H](Cc1ccccc1)C(=O)N[C@@H](CCC(=O)O)C(=O)N[C@@H](Cc1ccccc1)C(=O)N[C@H](C(N)=O)[C@@H](C)O)C(C)C)[C@@H](C)O` [JBS2625] (Ac-TGHVSAGWYDYNFDHYFEFT-NH2) returned a 50% inhibitory concentration (IC50) of 1.6 nM. Compared with the last compound, the IC50 is about 3.5-fold lower.
Compound `CC(=O)N[C@H](C(=O)N1CCC[C@H]1C(=O)N[C@@H](Cc1c[nH]cn1)C(=O)N[C@H](C(=O)N[C@@H](CO)C(=O)N[C@@H](C)C(=O)NCC(=O)N[C@@H](Cc1c[nH]c2ccccc12)C(=O)N[C@@H](Cc1ccc(O)cc1)C(=O)N[C@@H](CC(=O)O)C(=O)N[C@@H](Cc1ccc(O)cc1)C(=O)N[C@@H](CC(N)=O)C(=O)N[C@@H](Cc1ccccc1)C(=O)N[C@@H](CC(=O)O)C(=O)N[C@@H](Cc1c[nH]cn1)C(=O)N[C@@H](Cc1ccc(O)cc1)C(=O)N[C@@H](CCCNC(=N)N)C(=O)N[C@@H](CCC(=O)O)C(=O)N[C@@H](Cc1ccccc1)C(=O)N[C@H](C(N)=O)[C@@H](C)O)C(C)C)[C@@H](C)O` [JBS2629] (Ac-TPHVSAGWYDYNFDHYREFT-NH2) came in with a 50% inhibitory concentration (IC50) of 3.1 nM. Compared with the last compound, the IC50 is about 1.9-fold higher.

The term IC50 denotes the concentration at which inhibition is half-maximal.
